Data on 18 compounds can be found in patent publication US8420640B2, “Methods of treating amyloid disease using analogs of 1-(4-nitrophenyl) piperazine” (Treventis Corporation, priority 2008, dated 2013).

One assay deals with tau protein. Briefly: tau protein aggregation over time (FIG. 1). It is filed as biochemical. The note with it: tau protein 4 μM; compound at 10 μM.
Assay [1] has as its target T1, alpha-synuclein (Homo sapiens, UniProt P37840). Briefly: alpha-synuclein aggregation inhibition (procedure similar to the ThT assay). It is filed as biochemical. The note with it: alpha-synuclein 6 μM.
Assay [2] deals with T1, alpha-synuclein. The assay is described as above. In kind it is biochemical. The note with it: inhibition of alpha-synuclein aggregation; read-out: A-syn (IC50/μM). As for the experimental part:
(§1) The kinetic ThT assay for Aβ aggregation is similar to that of Chalifour et al (Chalifour et al, 2003, J. Biol. Chem. 278:34874-81). Briefly, pre-treated Aβ40 (40 μM in 20 mM Tris, pH 7.4), was diluted with an equal volume of 8 μM ThT in Tris (20 mM, pH 7.4, 300 mM NaCl). Aliquots of Aβ/ThT (200 μL) were added to wells of a black polystyrene 96-well plate, followed by 2 μL of a compound in DMSO (variable concentration), or DMSO alone (controls). Incubations were performed in triplicate and were taken to contain 20 μM Aβ, various concentration of compound in 20 mM Tris, pH 7.4, 150 mM NaCl, 1% DMSO. Plates were covered with clear polystyrene lids and incubated at 37° C. in a Tecan Genios microplate reader. Fluorescence readings (λex=450 nm, λem=480 nm) were taken every 15 min., after first shaking at high intensity for 15 s and allowing to settle for 10 s before each reading. Active compounds attenuated the increase in fluorescence over time that occurred in controls. By repeating this procedure over several concentrations, a mean inhibitory concentration (IC50) was measured, as given in the table below. The column “A-syn” represents a similar procedure measuring inhibition of alpha-synuclein aggregation. The column “ratio” is a reproducible assessment of potency with respect to the compound of Example 7, in which 1=potency of that compound: […]

The next assay addresses T2, Aβ40 (Homo sapiens, UniProt P05067).
T2 construct: Compounds Showing Activity Observed in a ThT Functional Aβ 1-40 Aggregation Assay
Briefly: ThT functional Aβ 1-40 aggregation assay. In kind it is biochemical. The note with it: for IC50: 20 μM Aβ, 20 mM Tris pH 7.4, 150 mM NaCl, 1% DMSO, 37° C.; for Ratio: potency with respect to the compound of Example 7, 1=potency of that compound. On the procedure: Aβ40 (1.0 mg) was pre-treated in a 1.5 mL microfuge tube with HFIP (1 mL) and sonicated for 20 min to disassemble any pre-formed Aβ aggregates. The HFIP was removed with a stream of argon and the Aβ dissolved in Tris base (5.8 mL, 20 mM, pH ˜10). The pH was adjusted to 7.4 with concentrated HCl (˜10 μL) and the solution filtered using a syringe filter (0.2 μm) before being used.
as §1

The subject of a further assay is amyloid. Briefly: circular dichroism scans of amyloid with compound, T=0 to 168 hr (FIGS. 3-6). The note with it: scans at T=0, 24 hr, 96 hr, 120 hr. On the technique in general: Circular dichroism is widely used to follow secondary structure.
Another assay addresses beta-amyloid (Homo sapiens, UniProt P05067). The note with it: cited from earlier work.

T2 sequence (P05067 672-711 limits assumed): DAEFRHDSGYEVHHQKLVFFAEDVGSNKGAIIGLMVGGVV

Usually inhibition stands for how much of the control response was suppressed. Higher therefore signals a strong effect. In the case of `CN1CCN(c2ccc([N+](=O)[O-])c(NCc3ccccc3)c2)CC1` [Example 4, N-benzyl-5-(4-methylpiperazin-1-yl)-2-nitrobenzenamine], the “ability to inhibit the aggregation of tau protein” value (“ability to inhibit the aggregation” below) with tau protein is “inhibit the aggregation of tau protein”. Also, the inhibition at 10 µM at alpha-synuclein [1] (compound at 10 μM) stood at 50%. Moreover, at alpha-synuclein [1] (compound at 50 μM), the “inhibition of aggregation of alpha-synuclein” value is recorded as “full inhibition”.

Regarding `CN(C)c1ccc(N2CCN(C(=O)c3ccccc3)CC2)cc1Nc1ccccc1` [drawing 157], the IC50 at alpha-synuclein [2] was about 7 µM. At Aβ40, the IC50 was found to be 3.5 µM and the Ratio is on record as 11.

`O=C(c1ccccc1)N1CCN(c2ccc([N+](=O)[O-])c(NCc3ccccc3)c2)CC1`: the IC50 on alpha-synuclein [2] was 51 µM; against Aβ40, 10 to 20 µM. For the same compound, the Ratio at Aβ40 was determined as 0.09.

Regarding `CN(c1ccccc1)c1cc(N2CCN(C(=O)c3ccccc3)CC2)ccc1[N+](=O)[O-]`, the IC50 is 5 µM on alpha-synuclein [2] and 9.64 µM on Aβ40. Besides, the Ratio at Aβ40 is on record as 0.9.

`CN(C)c1ccc(N2CCN(C(=O)c3ccccc3)CC2)cc1Nc1ccccc1` [Example 34, (4-(4-(dimethylamino)-3-(phenylamino)phenyl)piperazin-1-yl)(phenyl)methanone]: the “circular dichroism: effect on amyloid structure” value (“circular dichroism: effect” below) in the assay with amyloid is given as “keeps amyloid from entering an aggregated structure”.

With `CN(C)c1cc([N+](=O)[O-])ccc1N1CCN(C(=O)c2ccccc2)CC1` [Example 25, N,N-dimethyl-2-(4-benzoylpiperazin-1-yl)-5-nitrobenzenamine], the “circular dichroism: effect” value in the assay on amyloid was “keeps amyloid from entering an aggregated structure”.

In the case of `CN(C)c1cc([N+](=O)[O-])ccc1N1CCN(C(=O)c2ccccc2)CC1` [drawing 150], the IC50 on alpha-synuclein [2] came to 15 µM. At Aβ40, the IC50 came out at 27 µM and the Ratio is reported as 0.8.

Regarding `O=C(O)c1cccc(-c2ccc([N+](=O)[O-])c(Nc3ccccc3)c2)c1` [Example 46, 4′-nitro-3′-(phenylamino) biphenyl-3-carboxylic acid], the “circular dichroism: effect” value in the assay on amyloid is given as “keeps amyloid from entering an aggregated structure”.

On to `O=C(O)c1cccc(-c2ccc([N+](=O)[O-])c(Nc3ccccc3)c2)c1` [drawing 149], for which the results for the IC50 on alpha-synuclein [2] and at Aβ40 were 10 µM and 9.23 µM, respectively. Moreover, the Ratio at Aβ40 was found to be 2.3.

In the case of `O=C(O)c1cccc(-c2ccc([N+](=O)[O-])c(NCc3ccccc3)c2)c1` [Example 54, 3′-(benzylamino)-4′-nitrophenyl-3-carboxylic acid], the “circular dichroism: effect” value in the assay with amyloid is reported as “keeps amyloid from entering an aggregated structure”.

Turning to `CCCNc1cc(N2CCN(C(=O)c3ccccc3)CC2)ccc1[N+](=O)[O-]` [drawing 105], the IC50 at alpha-synuclein [2] was determined as 142 µM. At Aβ40, the IC50 worked out at 2.5 µM and the Ratio turned out to be 0.34.

Consider `O=C(O)c1cccc(-c2ccc([N+](=O)[O-])c(NCc3ccccc3)c2)c1` [drawing 139], for which the IC50 on alpha-synuclein [2] is 8 µM. Further, on Aβ40, the IC50 was 1.47 µM and the Ratio is given as 2.85.

In the case of `CN1CCN(c2ccc([N+](=O)[O-])c(NCc3ccccc3)c2)CC1` [drawing 103], the values for the IC50 on alpha-synuclein [2] and against Aβ40 were 11.6 µM and 9 µM, respectively. The Ratio on Aβ40 is recorded as 0.1.

Consider `CN(C)c1cc(N2CCN(C(=O)c3ccccc3)CC2)ccc1[N+](=O)[O-]`, for which the IC50 on alpha-synuclein [2] amounted to 4 µM. Also, on Aβ40, the IC50 amounted to 25 µM and the Ratio came to 0.88.

Consider `CCCNc1cc(N2CCN(C(=O)c3ccccc3)CC2)ccc1[N+](=O)[O-]` [Example 6, (4-(4-nitro-3-(propylamino)phenyl)piperazin-1-yl)(phenyl)methanone], for which the “ability to inhibit the aggregation” value in the assay with tau protein is “inhibit the aggregation of tau protein”.

In the case of `O=C(c1ccccc1)N1CCN(c2ccc([N+](=O)[O-])c(Nc3ccccc3)c2)CC1` [Example 7, (4-(4-nitro-3-(phenylamino)phenyl)piperazin-1-yl)(phenyl)methanone], the IC50 amounted to 6.34 µM on alpha-synuclein [2] and 0.85 µM on Aβ40. Besides, the “ability to inhibit the aggregation” value in the assay on tau protein is recorded as “inhibit the aggregation of tau protein”. On Aβ40, the Ratio was 1.

Consider `Nc1ccc(-c2cccc(C(=O)O)c2)cc1Nc1ccccc1`, for which the results for the IC50 on alpha-synuclein [2] and against Aβ40 were 45 µM and 26.6 µM, respectively. In addition, the Ratio at Aβ40 came to 2.5.

In the case of `Oc1ccc(C=Cc2cc(O)cc(O)c2)cc1` [resveratrol], the “effective concentration for inhibition of beta-amyloid aggregation” value on beta-amyloid is 5.6 µM.
